Target: T1, 3-phosphoinositide-dependent protein kinase 1 (Homo sapiens, UniProt O15530)
T1 sequence (O15530 whole entry): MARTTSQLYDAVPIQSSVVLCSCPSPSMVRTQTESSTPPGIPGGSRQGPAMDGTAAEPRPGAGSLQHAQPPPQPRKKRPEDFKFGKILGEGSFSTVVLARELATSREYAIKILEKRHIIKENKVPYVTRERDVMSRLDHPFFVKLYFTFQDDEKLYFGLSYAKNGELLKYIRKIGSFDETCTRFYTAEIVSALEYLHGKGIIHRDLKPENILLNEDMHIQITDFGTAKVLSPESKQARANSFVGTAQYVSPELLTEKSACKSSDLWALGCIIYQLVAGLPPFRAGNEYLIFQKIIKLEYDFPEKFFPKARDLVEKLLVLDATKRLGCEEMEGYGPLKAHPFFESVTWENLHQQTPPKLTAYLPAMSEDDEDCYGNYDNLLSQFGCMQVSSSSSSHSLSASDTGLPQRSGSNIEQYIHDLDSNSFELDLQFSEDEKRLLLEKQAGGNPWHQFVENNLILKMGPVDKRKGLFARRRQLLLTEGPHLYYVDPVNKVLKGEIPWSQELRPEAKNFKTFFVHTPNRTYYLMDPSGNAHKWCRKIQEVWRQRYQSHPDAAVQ
Assay: PDK1-mediated AKT2 Activation Assay (cAKT2 33P-SPA)
Settings: pH 7.2; 22 °C
Description: The coupled assay can detect inhibitors of AKT2 activation, as well as direct inhibitors of PDK1 or AKT2. Inactive AKT2 is activated in situ by incubating with PDK1 and PtdIns-3, 4-P2 in the presence of compound, 33P-ATP, and a biotinylated peptide substrate for AKT2. The peptide is captured on streptavidin-coated SPA beads for detection.

IC50 [nM]	Structure (SMILES)
12	O=C(Nc1cccc(Nc2ncc(Br)c(NCCc3c[nH]cn3)n2)c1)N1CCCC1 [N-{3-[(5-bromo-4-{[2-(1H-imidazol-4-yl)ethyl]amino}pyrimidin-2-yl)amino]phenyl}pyrrolidine-1-carboxamide]
6	O=C(NCCCNc1nc(Nc2cccc(NC(=O)N3CCCC3)c2)ncc1I)c1cccs1 [N-{3-[(5-iodo-4-{[3-(thiophen-2-ylformamido)propyl]amino}pyrimidin-2-yl)amino]phenyl}pyrrolidine-1-carboxamide]

Reference: BindingDB's records for doi:10.1074/jbc.M501367200 (Berlex Biosciences, 2005)
